Our source for the mutagenic call values is PubChem BioAssay AID1259407 (Chemical Carcinogenesis Research Information System (CCRIS), 2018).

The test system of the data set is CCRIS mutagenicity, Ames/micronucleus/aberration tests. Put plainly: CCRIS mutagenicity studies.
Setting [1] is: Test System: AMES SALMONELLA TYPHIMURIUM, Strain/Indicator: TA98, Metabolic Activation: NONE, Method: STANDARD PLATE.
[2] abbreviates: Test System: AMES SALMONELLA TYPHIMURIUM, Strain/Indicator: TA100, Metabolic Activation: NONE, Method: PREINCUBATION
The mark [3] stands for this setting: Test System: AMES SALMONELLA TYPHIMURIUM, Strain/Indicator: TA100, Metabolic Activation: NONE, Method: STANDARD PLATE.
The mark [4] stands for this setting: Test System: AMES SALMONELLA TYPHIMURIUM, Strain/Indicator: TA102, Metabolic Activation: NONE, Method: STANDARD PLATE.
[5] abbreviates: Test System: AMES SALMONELLA TYPHIMURIUM, Strain/Indicator: TA1535, Metabolic Activation: NONE, Method: STANDARD PLATE.
The mark [6] stands for this setting: Test System: AMES SALMONELLA TYPHIMURIUM, Strain/Indicator: TA98, Metabolic Activation: RAT, LIVER, S-9, AROCLOR 1254, Method: STANDARD PLATE.

Activity calls are given as the source filed them. The rule behind the calls is not given here.

In the case of `O=[N+]([O-])c1ccc2c(c1)oc1ccccc12`, the mutagenic call by setting is: (Test System: AMES SALMONELLA TYPHIMURIUM, Strain/Indicator: TA98(1,8-DNP6), Metabolic Activation: NONE, Method: PREINCUBATION) “active; positive”; (Test System: AMES SALMONELLA TYPHIMURIUM, Strain/Indicator: TA98(1,8-DNP6), Metabolic Activation: NONE, Method: SUSPENSION) “active; positive”; (Test System: AMES SALMONELLA TYPHIMURIUM, Strain/Indicator: TA98(1,8-DNP6), Metabolic Activation: RAT, LIVER, S-9, PCB (5%), Method: PREINCUBATION) “active; positive”; (Test System: AMES SALMONELLA TYPHIMURIUM, Strain/Indicator: TA98(NR), Metabolic Activation: NONE, Method: PREINCUBATION) “active; positive”; (Test System: AMES SALMONELLA TYPHIMURIUM, Strain/Indicator: TA98(NR), Metabolic Activation: NONE, Method: SUSPENSION) “active; positive”; (Test System: AMES SALMONELLA TYPHIMURIUM, Strain/Indicator: TA98(NR), Metabolic Activation: RAT, LIVER, S-9 (10%), Method: PREINCUBATION) “active; positive”. Also, the mutagenic call by setting is: (Test System: AMES SALMONELLA TYPHIMURIUM, Strain/Indicator: TA98(NR), Metabolic Activation: RAT, LIVER, S-9, 3-METHYLCHOLANTHRENE (10%), Method: PREINCUBATION) “active; positive”; (Test System: AMES SALMONELLA TYPHIMURIUM, Strain/Indicator: TA98(NR), Metabolic Activation: RAT, LIVER, S-9, BETA-NAPHTHOFLAVONE (10%), Method: PREINCUBATION) “active; positive”; (Test System: AMES SALMONELLA TYPHIMURIUM, Strain/Indicator: TA98(NR), Metabolic Activation: RAT, LIVER, S-9, PCB (5%), Method: PREINCUBATION) “active; positive”; (Test System: AMES SALMONELLA TYPHIMURIUM, Strain/Indicator: TA98(NR), Metabolic Activation: RAT, LIVER, S-9, PCB (10%), Method: PREINCUBATION) “active; positive”; (Test System: AMES SALMONELLA TYPHIMURIUM, Strain/Indicator: TA98(NR), Metabolic Activation: RAT, LIVER, S-9, PHENOBARBITAL (10%), Method: PREINCUBATION) “active; positive”; (Test System: AMES SALMONELLA TYPHIMURIUM, Strain/Indicator: TA98, Metabolic Activation: NONE, Method: PREINCUBATION) “active; positive”. The mutagenic call by setting is: under setting [1], “active; positive”; (Test System: AMES SALMONELLA TYPHIMURIUM, Strain/Indicator: TA98, Metabolic Activation: NONE, Method: SUSPENSION) “active; positive”; (Test System: AMES SALMONELLA TYPHIMURIUM, Strain/Indicator: TA98, Metabolic Activation: RAT, LIVER, S-9, PCB (5%), Method: PREINCUBATION) “active; positive”; (Test System: AMES SALMONELLA TYPHIMURIUM, Strain/Indicator: TA98, Metabolic Activation: RAT, LIVER, S-9, PCB, Method: SUSPENSION) “active; positive”; (Test System: AMES SALMONELLA TYPHIMURIUM, Strain/Indicator: TA98, Metabolic Activation: S-9, PHENOBARBITAL AND 5,6-BENZOFLAVONE, Method: STANDARD PLATE) “active; positive”; under setting [2], “inactive; negative”. Besides, the mutagenic call runs as follows: under setting [3], “active; positive”; (Test System: AMES SALMONELLA TYPHIMURIUM, Strain/Indicator: TA100, Metabolic Activation: NONE, Method: SUSPENSION) “active; positive”; (Test System: AMES SALMONELLA TYPHIMURIUM, Strain/Indicator: TA100, Metabolic Activation: RAT, LIVER, S-9, PCB (5%), Method: PREINCUBATION) “inactive; negative”; (Test System: AMES SALMONELLA TYPHIMURIUM, Strain/Indicator: TA100, Metabolic Activation: RAT, LIVER, S-9, PCB, Method: SUSPENSION) “inactive; negative”; (Test System: AMES SALMONELLA TYPHIMURIUM, Strain/Indicator: TA100, Metabolic Activation: S-9, PHENOBARBITAL AND 5,6-BENZOFLAVONE, Method: STANDARD PLATE) “active; positive”.

As for `CCN(CC)C(=O)/C(Cl)=C(\C)OP(=O)(OC)OC`, the mutagenic call is, setting by setting: (End Point: IN VITRO CHROMOSOMAL ABERRATIONS, Test System: HUMAN PERIPHERAL BLOOD LYMPHOCYTES, Metabolic Activation: NONE) “active; positive (structural changes)”; (Test System: AMES SALMONELLA TYPHIMURIUM, Strain/Indicator: G46, Metabolic Activation: HOST-MEDIATED, Method: STANDARD PLATE) “active; positive”; (Test System: AMES SALMONELLA TYPHIMURIUM, Strain/Indicator: TA97A, Metabolic Activation: NONE, Method: STANDARD PLATE) “inactive; negative”; (Test System: AMES SALMONELLA TYPHIMURIUM, Strain/Indicator: TA97A, Metabolic Activation: PLANT, HOMOGENATE, S-14, Method: STANDARD PLATE) “inactive; negative”; (Test System: AMES SALMONELLA TYPHIMURIUM, Strain/Indicator: TA97A, Metabolic Activation: S-9, Method: STANDARD PLATE) “inactive; negative”; under setting [1], “inactive; negative”. Also, the mutagenic call is, setting by setting: (Test System: AMES SALMONELLA TYPHIMURIUM, Strain/Indicator: TA98, Metabolic Activation: PLANT, HOMOGENATE, S-14, Method: STANDARD PLATE) “inactive; negative”; (Test System: AMES SALMONELLA TYPHIMURIUM, Strain/Indicator: TA98, Metabolic Activation: S-9, Method: STANDARD PLATE) “inactive; negative”; under setting [2], “active; positive”; (Test System: AMES SALMONELLA TYPHIMURIUM, Strain/Indicator: TA100, Metabolic Activation: PLANT, HOMOGENATE, S-14, Method: STANDARD PLATE) “inactive; negative”; (Test System: AMES SALMONELLA TYPHIMURIUM, Strain/Indicator: TA100, Metabolic Activation: S-9, Method: STANDARD PLATE) “inactive; negative”; under setting [4], “inactive; negative”. Also, the mutagenic call by setting is: (Test System: AMES SALMONELLA TYPHIMURIUM, Strain/Indicator: TA104, Metabolic Activation: NONE, Method: STANDARD PLATE) “inactive; negative”; under setting [5], “inactive; negative”; (Test System: AMES SALMONELLA TYPHIMURIUM, Strain/Indicator: TA1535, Metabolic Activation: PLANT, HOMOGENATE, S-14, Method: STANDARD PLATE) “inactive; negative”; (Test System: AMES SALMONELLA TYPHIMURIUM, Strain/Indicator: TA1535, Metabolic Activation: S-9, Method: STANDARD PLATE) “inactive; negative”.

As for `O=C(c1ccccc1)C1OC1c1ccccc1` (stereo not given), the mutagenic call was “inactive; negative” under setting [1]; “inactive; negative” under setting [6]; “active; positive” under setting [3]; “active; positive” (Test System: AMES SALMONELLA TYPHIMURIUM, Strain/Indicator: TA100, Metabolic Activation: RAT, LIVER, S-9, AROCLOR 1254, Method: STANDARD PLATE).

Consider `CCOP(=S)(OCC)Oc1cnc2ccccc2n1`, for which the mutagenic call is “inactive; negative” under setting [1]; “inactive; negative” (Test System: AMES SALMONELLA TYPHIMURIUM, Strain/Indicator: TA98, Metabolic Activation: S-9, NADPH GENERATING SYSTEM, Method: STANDARD PLATE); “inactive; negative” under setting [4]; “inactive; negative” (Test System: AMES SALMONELLA TYPHIMURIUM, Strain/Indicator: TA102, Metabolic Activation: S-9, NADPH GENERATING SYSTEM, Method: STANDARD PLATE); “inactive; negative” under setting [5]; “inactive; negative” (Test System: AMES SALMONELLA TYPHIMURIUM, Strain/Indicator: TA1535, Metabolic Activation: S-9, NADPH GENERATING SYSTEM, Method: STANDARD PLATE). Besides, the mutagenic call is “inactive; negative” (Test System: AMES SALMONELLA TYPHIMURIUM, Strain/Indicator: TA1537, Metabolic Activation: NONE, Method: STANDARD PLATE) and “inactive; negative” (Test System: AMES SALMONELLA TYPHIMURIUM, Strain/Indicator: TA1537, Metabolic Activation: S-9, NADPH GENERATING SYSTEM, Method: STANDARD PLATE).

Turning to `O=[N+]([O-])c1cc2c([nH]c3ccccc32)c([N+](=O)[O-])c1O`, the mutagenic call by setting is: (Test System: AMES SALMONELLA TYPHIMURIUM, Strain/Indicator: TA98(NR), Metabolic Activation: NONE, Method: STANDARD PLATE) “active; positive”; (Test System: AMES SALMONELLA TYPHIMURIUM, Strain/Indicator: TA98(NR), Metabolic Activation: RAT, LIVER, S-9, AROCLOR 1254, Method: STANDARD PLATE) “active; positive”; under setting [1], “active; positive”; under setting [6], “active; positive”.
